The values below come from publication PMC6811774, “Potent, selective, and subunit‐dependent activation of TRPC5 channels by a xanthine derivative” (British Journal of Pharmacology, 2019).

The experiment deals with T1, TRPC5-SYFP2 (TRPC5:C5 channels) (Homo sapiens, UniProt Q9UL62).
T1 construct: expressed in transfected cells
T1 sequence (Q9UL62 1-973): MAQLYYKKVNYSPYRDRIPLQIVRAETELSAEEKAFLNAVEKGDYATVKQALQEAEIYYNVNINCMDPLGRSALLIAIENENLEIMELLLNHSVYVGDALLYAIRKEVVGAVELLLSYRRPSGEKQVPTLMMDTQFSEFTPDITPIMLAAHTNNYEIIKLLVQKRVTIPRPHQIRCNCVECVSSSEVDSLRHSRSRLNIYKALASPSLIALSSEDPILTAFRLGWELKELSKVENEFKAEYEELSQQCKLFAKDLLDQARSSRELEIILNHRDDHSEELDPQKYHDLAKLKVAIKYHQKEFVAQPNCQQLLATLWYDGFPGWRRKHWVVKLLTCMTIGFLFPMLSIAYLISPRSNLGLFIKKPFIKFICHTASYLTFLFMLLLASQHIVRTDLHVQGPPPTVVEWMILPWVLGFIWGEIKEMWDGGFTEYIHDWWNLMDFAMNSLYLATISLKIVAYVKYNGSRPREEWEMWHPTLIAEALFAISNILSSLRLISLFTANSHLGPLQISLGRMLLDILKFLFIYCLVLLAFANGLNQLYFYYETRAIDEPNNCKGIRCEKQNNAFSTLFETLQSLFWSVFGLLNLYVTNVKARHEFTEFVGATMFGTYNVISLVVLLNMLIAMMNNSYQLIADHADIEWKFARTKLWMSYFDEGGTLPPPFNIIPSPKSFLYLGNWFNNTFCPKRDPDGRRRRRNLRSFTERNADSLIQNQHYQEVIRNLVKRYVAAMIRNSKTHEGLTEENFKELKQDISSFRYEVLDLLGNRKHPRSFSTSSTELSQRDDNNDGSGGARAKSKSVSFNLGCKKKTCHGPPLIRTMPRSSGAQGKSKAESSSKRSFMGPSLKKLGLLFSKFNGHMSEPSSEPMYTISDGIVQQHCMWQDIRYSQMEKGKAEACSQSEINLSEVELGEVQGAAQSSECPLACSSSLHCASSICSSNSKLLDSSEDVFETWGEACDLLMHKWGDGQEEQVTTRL
In words: [Ca2+]i measurement (Fura-2, FlexStation) in (Tet+) HEK T-REx cells expressing hTRPC5-SYFP2. It is filed as cell-based. The source says:
To facilitate cloning of TRPC5‐SYFP2 and TRPC4‐SYFP2, a pcDNA™4/TO expression vector (ThermoFisher Scientific, Waltham, MA, USA), into which a four amino acid linker (ASAS) flanked by AgeI and SacII restriction sites had been introduced between EcoRI and XhoI restriction sites, was used (Naylor et al., 2016). Human TRPC4β was inserted between BamHI and AgeI restriction sites as described previously (Ludlow et al., 2017). Human TRPC5 (forward primer: 5′ GCTTGGTACCGCCACCATG 3′ and reverse primer: 5′ […] 3′) was inserted upstream of the linker between KpnI and AgeI restriction sites using hTRPC5/pcDNA™4/TO (Zeng et al., 2004) as a PCR template. Both constructs contained an N‐terminal Kozak sequence. SYFP2 was inserted downstream of the linker between SacII and XbaI restriction sites using pSYFP2‐C1 as a PCR template (forward primer, 5′ […] 3′; reverse primer, 5′ […] 3′). pSYFP2‐C1 was a gift from Dorus Gadella (Addgene plasmid #22878; http://n2t.net/addgene:22878; RRID:Addgene_22878; Kremers, Goedhart, van Munster, & Gadella, 2006). Plasmids were sequenced to verify identity.
HEK T‐REx™ cell line was transfected with TRPC5‐SYFP2 or TRPC4‐SYFP2 using FuGENE® HD transfection reagent. After 48 hr, cells were put under antibiotic selection using 400 μg·ml^−1 zeocin and 10 μg·ml^−1 blasticidin S (Invivogen, San Diego, California, USA). Medium changes were carried out regularly to remove dead cells. HEK T‐REx cells expressing tetracycline‐inducible human TRPC5, TRPC4–C1, and TRPC5–C1 were created as described previously (Akbulut et al., 2015; Ludlow et al., 2017; Rubaiy, Ludlow, Henrot, et al., 2017). TRPC5–C1 and TRPC4–C1 concatemers allow expression of functional channels with defined 2:2 stoichiometry that display ion permeability and current–voltage relationships distinct from those of homomeric TRPC4:C4 or TRPC5:C5 channels and consistent with those obtained upon co‐expression of TRPC1 with TRPC4 or TRPC5 (Ludlow et al., 2017; Rubaiy, Ludlow, Bon, & Beech, 2017; Rubaiy, Ludlow, Henrot, et al., 2017). Cells were cultured in DMEM‐F12 GlutaMAX (Invitrogen, Paisley, UK) containing 10% FBS (Sigma‐Aldrich, Gillingham, UK), with the addition of blasticidin (10 μg·ml^−1) and zeocin (400 μg·ml^−1) to maintain the stable incorporation of the tetracycline repressor and the channel of interest, respectively. Expression of proteins was induced by the addition of tetracycline (1 μg·ml^−1, 24 hr). Cells were maintained in a humidified incubator with 5% CO2 at 37°C. HEK 293 cells stably expressing tetracycline‐regulated human http://www.guidetopharmacology.org/GRAC/ObjectDisplayForward?objectId=494 were prepared similarly and have also been described previously (McHugh, Flemming, Xu, Perraud, & Beech, 2003). For experiments using transient co‐expression of TRPC1 and TRPC5, HEK cells at 40–60% confluency were transfected with pIRES2‐AcGFP1 and pIRES2‐DsRed‐Express2 plasmids containing human TRPC1 and TRPC5, respectively, using Lipofectamine 3000 (ThermoFisher Scientific, Yokohama, Japan). All experiments using transient expression were performed within 48 hr after transfection. A498 cells were cultured in Minimum Essential Medium containing Earle's salts (ThermoFisher Scientific, Loughborough, UK), supplemented with 10% FBS and penicillin–streptomycin (100 units per ml^−1, 100 μg·ml^−1; ThermoFisher Scientific, Loughborough, UK). CHO cells stably expressing http://www.guidetopharmacology.org/GRAC/ObjectDisplayForward?objectId=510 were maintained in Ham's Nutrient Mixture F12 (ThermoFisher Scientific, Loughborough, UK) supplemented with 10% FBS, penicillin–streptomycin, and 1 mg·ml^−1 G418 (InvivoGen, San Diego, California, USA). For experiments using hTRPC3 and hTRPC6, WT HEK 293 cells were transfected with hTRPC3 (Naylor et al., 2016) or hTRPC6 (cloned into pcDNA3) using jetPRIME® transfection reagent (VWR, Lutterworth, UK). Cells were assayed 48 hr after transfection. […]

On to `Cn1c(=O)n(CCCO)c(=O)c2c1nc(Oc1ccc(Cl)c(OC(F)(F)F)c1)n2Cc1ccc(Cl)cc1` [AM237], for which the “Hill slope, suppression of EA response” value (10 nM EA) was -2.2. Besides, under “0.3 to 1 nM AM237, 30 min pre-incubation, 10 μM S1P”, the “Effect on S1P-mediated [Ca2+]i response” value is given as “no significant effect”. The “Effect on [Ca2+]i in the absence of extracellular Ca2+” value (0.3–300 nM, Ca2+-free SBS with 0.4 mM EGTA) is recorded as “did not increase”. The “Effect on S1P-mediated activation of TRPC5:C5” value (3–300 nM AM237, 30 min pre-incubation, 10 μM S1P) is listed as “significantly increased”. Moreover, the half-maximal inhibitory concentration (IC50) (30 min pre-incubation, then 10 nM EA, read-out: Relative IC50, suppression of EA-mediated [Ca2+]i response) was determined as 13 nM. Besides, the half-maximal effective concentration (EC50) (Control (DMSO pretreatment), competition experiment, read-out: EC50, activation) amounted to 10 nM. Where the note is “co-application of 10 μM S1P and 0.3–300 nM AM237”, the “Effect on S1P response upon simultaneous addition” value was “increases of the responses to S1P”. For the same compound, the “Hill slope, activation” value (hTRPC5-SYFP2 concentration–response curve) turned out to be 1.4.

As a reminder, the IC50 is the concentration that gives 50% inhibition. What is called EC50 is the concentration needed to bring the measured effect to its halfway point.
